Patent US9359303B2, “Octahydrobenzoisoquinoline modulators of dopamine receptors and uses therefor” (Purdue Research Foundation, priority 2009, dated 2016)

Legend:
D2-like receptor sites = D2-like receptor sites (Sus scrofa, UniProt A0ACM8QMZ9); experiment: Competitive binding, porcine striatal tissue, [3H]-spiperone (50 nM ketanserine present); conditions: porcine striatal membranes; read-out: Kd for D2-like receptor sites (receptor isotherm)
Procedure: Competitive Binding Experiments. Porcine striatal tissue is obtained from the Purdue Butcher Block and prepared as described in the literature. Striatal tissue is homogenized using a potter-type homogenizer, suspended in homogenization buffer (20 mM Hepes, 0.32 M sucrose, pH 7.4), and spun at 1,000 g for 10 minutes at 4° C. The pellet (P1) is discarded and supernatant is centrifuged at 30,000 g for 10 minutes at 4° C. The resultant pellet (P2) is resuspended in 50 mM Tris buffer (pH 7.4) by briefly using a Kinematica homogenizer, and then centrifuged at 30,000 g for 30 minutes at 4° C. This pellet is resuspended again in 50 mM Tris buffer, dispensed into 1 mL aliquots, and centrifuged for 10 min. at 13,000 g at 4° C. A BSA protein assay is used to determine the final weight of the pellets. Supernatant is aspirated and pellets are frozen at −80° C. until use.
Receptor and competitive binding experiments are performed as described in the literature. Pellets are resuspended (1 mL/mg) in receptor binding buffer (50 mM Hepes, 4 mM MgCl2, pH 7.4) and 75 μg protein is used per well. […] All binding experiments are incubated for 30 minutes at 37° C., and are terminated and counted in a similar fashion to the cAMP binding assays.
Data Analysis. […] Ki values are calculated from IC50 using the Cheng-Prusoff equation.

D1 receptor = D1 receptor (Homo sapiens, UniProt P21728); conditions: reported; cited from earlier work
D2 receptor = D2 receptor (Homo sapiens, UniProt P14416); conditions: reported; cited from earlier work
[1] = rodents and non-human primates; iv, sc, po; cited from earlier work
[2] = pKa used to separate acids by titration; format: physicochemical
Procedure: 4-(2,3-Dimethoxyphenyl)but-3-enoic acid (5). Recrystallized paraconic acid 4 (8.6 g, 0.032 mol) was placed into a one-neck round bottom flask and the solid was heated in a 180° C. oil bath for 6 h. Carbon dioxide could be observed bubbling out of the dark brown liquid. The reaction was cooled to room temperature and dissolved in CH2Cl2. The product and any unreacted starting material were extracted into 2 N NaOH (3×100 mL). The pKa of the butenoic acid is approximately 4.2, whereas the pKa of the paraconic acid is approximately 3.6, so the two compounds were separated by titration. The basic aqueous extract was carefully acidified with 2 N HCl, with monitoring by a calibrated pH meter. Once the pH reached 4.5, the solution started becoming slightly cloudy. The solution pH was adjusted to 4.0 and the aqueous solution was extracted with CH2Cl2. After extraction the pH of the aqueous layer increased to around 5 and the titration was repeated until there was no cloudiness at pH 4.0. The starting material was recovered by acidifying to pH 3.0 and extracting with CH2Cl2. The initial organic extracts were dried over Na2SO4, and evaporated under reduced pressure to yield pure 5 that solidified under reduced pressure as a yellow solid (4.7 g, 0.021 mol, 65.2%) that was used without further purification; mp 84-86° C. […]

Sequence of D1 receptor (P21728 whole entry): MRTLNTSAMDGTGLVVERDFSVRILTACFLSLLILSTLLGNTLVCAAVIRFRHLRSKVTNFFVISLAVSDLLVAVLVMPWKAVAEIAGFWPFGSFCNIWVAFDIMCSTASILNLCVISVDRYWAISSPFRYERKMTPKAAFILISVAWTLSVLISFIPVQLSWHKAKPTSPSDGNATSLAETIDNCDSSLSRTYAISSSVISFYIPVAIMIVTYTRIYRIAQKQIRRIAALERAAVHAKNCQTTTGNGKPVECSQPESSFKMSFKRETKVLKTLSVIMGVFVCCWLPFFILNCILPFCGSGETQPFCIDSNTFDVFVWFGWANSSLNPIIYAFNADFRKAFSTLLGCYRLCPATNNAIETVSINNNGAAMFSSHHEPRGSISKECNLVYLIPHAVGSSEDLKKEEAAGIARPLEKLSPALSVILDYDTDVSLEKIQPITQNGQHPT
Sequence of D2-like receptor sites (A0ACM8QMZ9 entry or part of it): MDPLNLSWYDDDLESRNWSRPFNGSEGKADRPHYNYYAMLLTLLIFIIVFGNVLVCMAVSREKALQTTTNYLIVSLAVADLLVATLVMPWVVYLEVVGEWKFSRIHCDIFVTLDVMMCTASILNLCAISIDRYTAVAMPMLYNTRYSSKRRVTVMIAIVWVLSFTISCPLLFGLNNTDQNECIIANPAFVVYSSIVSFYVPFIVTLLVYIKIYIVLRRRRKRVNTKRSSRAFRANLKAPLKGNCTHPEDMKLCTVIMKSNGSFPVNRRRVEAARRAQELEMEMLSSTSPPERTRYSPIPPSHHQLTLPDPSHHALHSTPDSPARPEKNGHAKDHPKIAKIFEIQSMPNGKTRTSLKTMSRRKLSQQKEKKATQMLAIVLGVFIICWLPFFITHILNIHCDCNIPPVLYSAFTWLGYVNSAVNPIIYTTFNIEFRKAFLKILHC
Sequence of D2 receptor (P14416 whole entry): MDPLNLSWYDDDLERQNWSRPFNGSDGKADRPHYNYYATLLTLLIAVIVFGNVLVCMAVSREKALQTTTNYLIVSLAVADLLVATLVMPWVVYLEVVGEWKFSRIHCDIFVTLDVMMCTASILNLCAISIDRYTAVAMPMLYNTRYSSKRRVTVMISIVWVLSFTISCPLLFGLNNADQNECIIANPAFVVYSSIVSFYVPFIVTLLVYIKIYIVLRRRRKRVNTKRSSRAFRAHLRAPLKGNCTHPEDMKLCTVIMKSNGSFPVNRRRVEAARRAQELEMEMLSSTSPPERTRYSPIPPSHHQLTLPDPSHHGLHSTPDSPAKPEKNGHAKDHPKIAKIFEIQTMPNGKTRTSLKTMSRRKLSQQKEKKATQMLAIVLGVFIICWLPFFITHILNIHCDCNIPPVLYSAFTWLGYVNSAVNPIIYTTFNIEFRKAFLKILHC

melting point [°C]	pKa [2]	Structure (SMILES)	further results
		O=C(CCCN1CCC2(CC1)C(=O)NCN2c1ccccc1)c1ccc(F)cc1 [[3H]-spiperone]	Kd (D2-like receptor sites): 0.075 nM
> 250		Br.Oc1ccc2c(c1O)CC(c1ccccc1)C1CCNCC21 (centres unmarked) [Compound 3, 5-Phenyl-1,2,3,4,4a,5,6,10b-octahydrobenzo[h]isoquinoline-7,8-diol HBr]	
		Cl.Oc1cc2c(cc1O)[C@@H]1c3ccccc3CN[C@H]1CC2 (racemic) [dihydrexidine, (±)-trans-10,11-dihydroxy-5,6,6a,7,8,12b-hexahydrobenzo[a]phenanthridine hydrochloride]	affinity for the D1 receptor (D1 receptor): 2.2 nM; affinity for the D2 receptor (D2 receptor): 183 nM; plasma clearance [1]: cleared rapidly from plasma
	~3.6	COc1cccc(C2OC(=O)CC2C(=O)O)c1OC (centres unmarked) [Compound 4, 2-(2,3-Dimethoxyphenyl)-5-oxo-tetrahydrofuran-3-carboxylic acid]	
> 250		Br.Oc1ccc2c(c1O)CC[C@H]1CCNC[C@H]21 (relative stereo) [Compound 2, Trans-1,2,3,4,4a,5,6,10b-octahydrobenzo[h]isoquinoline-7,8-diol HBr]	
	~4.2	COc1cccc(C=CCC(=O)O)c1OC [Compound 5, 4-(2,3-Dimethoxyphenyl)but-3-enoic acid]	
